This is an account of results in ChEMBL document CHEMBL1201862, “PubChem BioAssay data set” (2004).

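96-well plates; 48 h exposure; 5 concentrations. Endpoints by linear interpolation between flanking doses. Not reached: highest tested concentration assigned. At the GI50, growth is halved.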 Active and inactive are the calls of the source. No stated cut-off is given here; in the data, active = GI50 up to about 1.1 µM and inactive = higher.

Among the test systems are HCC 2998; HOP-92; BT-549; DU-145; COLO 205; UACC-257; SNB-19; SF-539; SN12C; K562; SK-MEL-5; UACC-62; KM12; ACHN; SR; SK-MEL-28; NCI-H460; TK-10; A549; EKVX.
Common to all, as to assay: growth of human tumour cells (NCI), 48 h

As to `O=C(O)c1cnccc1-c1cc(=O)[nH]n1-c1ccccc1`, the GI50 was 25 µM (inactive) in the assay on HCC 2998; > 53.2 µM (inactive) in the assay with HOP-92; > 80.5 µM (inactive) in the assay with BT-549; > 53.1 µM (inactive) with DU-145; 16 µM (inactive) with COLO 205; 66.1 µM (inactive) in the assay with UACC-257. For the same molecule, the GI50 was > 100 µM (inactive) in the assay with SNB-19; 35.6 µM (inactive) in the assay on SF-539; > 87.7 µM (inactive) in the assay on SN12C; 10 µM (inactive) in the assay on K562; 52.4 µM (inactive) in the assay with SK-MEL-5; 17.4 µM (inactive) in the assay with UACC-62. For the same molecule, the GI50 is 9.75 µM (inactive) with KM12; 35.8 µM (inactive) with ACHN; 11.3 µM (inactive) in the assay on SR; > 43.4 µM (inactive) with SK-MEL-28; 35 µM (inactive) in the assay with NCI-H460; > 100 µM (inactive) in the assay on TK-10. Also, the figures for the GI50 with A549 and with EKVX were 48.9 µM (inactive) and > 53.1 µM (inactive), respectively.

For `O=c1c2cc3c(=O)n4c(cc(-c5ccccc5)c5cc(Cl)ccc54)nc3cc2nc2cc(-c3ccccc3)c3cc(Cl)ccc3n12`, the GI50 in the assay on HCC 2998, with HOP-92, in the assay with BT-549, with DU-145, in the assay with COLO 205 and in the assay with UACC-257 was > 100 µM (inactive) each time. Besides, the GI50 in the assay with SNB-19 is 45.6 µM (inactive); in the assay on SF-539, > 100 µM (inactive); with SN12C, > 100 µM (inactive); in the assay on K562, > 100 µM (inactive); in the assay on SK-MEL-5, > 100 µM (inactive); with UACC-62 it was > 100 µM (inactive). Besides, the GI50 in the assay on KM12 is > 100 µM (inactive); with ACHN, 76.6 µM (inactive); in the assay on SR, > 100 µM (inactive); with SK-MEL-28 it was > 100 µM (inactive); in the assay with NCI-H460 it was > 100 µM (inactive); with TK-10, > 100 µM (inactive). The results for the GI50 with A549 and in the assay with EKVX were > 100 µM (inactive) and 75.3 µM (inactive), respectively.

As for `CN(C)CCNc1ccc(C(=O)NCCCN(C)CCCNC(=O)c2ccc(NCCN(C)C)c3c(=O)c4ccccc4[nH]c23)c2[nH]c3ccccc3c(=O)c12`, the GI50 was 0.0246 µM (active) in the assay on HCC 2998; 0.0724 µM (active) with HOP-92; 0.144 µM (active) with BT-549; < 0.0134 µM (active) in the assay on DU-145; 0.0163 µM (active) in the assay with COLO 205; 0.968 µM (active) in the assay on UACC-257. The GI50 was < 0.0118 µM (active) with SNB-19; < 0.01 µM (active) in the assay with SF-539; < 0.01 µM (active) in the assay on SN12C; 0.0332 µM (active) with K562; 0.146 µM (active) in the assay with SK-MEL-5; 0.0349 µM (active) in the assay on UACC-62. For the same molecule, the GI50 in the assay with KM12 was 0.0333 µM (active); with ACHN, 0.0402 µM (active); in the assay with SR, < 0.01 µM (active); in the assay with SK-MEL-28 it was 0.109 µM (active); in the assay on NCI-H460, < 0.0163 µM (active); in the assay with TK-10 it was 0.828 µM (active). Besides, the values for the GI50 with A549 and in the assay on EKVX were < 0.01 µM (active) and 0.478 µM (active), respectively.

In the case of `C[N+](C)(CCNC(=O)c1cccc2cc3ccccc3nc12)Cc1ccc([N+](=O)[O-])cc1`, the GI50 in the assay with HCC 2998, in the assay with HOP-92, in the assay on BT-549, in the assay on DU-145, in the assay with COLO 205 and in the assay with UACC-257 was > 100 µM (inactive) each time. Besides, the GI50 with SNB-19 was > 100 µM (inactive); in the assay on SF-539, > 100 µM (inactive); with SN12C, > 100 µM (inactive); in the assay on K562 it was > 100 µM (inactive); in the assay with SK-MEL-5, 50 µM (inactive); in the assay with UACC-62, > 100 µM (inactive). Also, the GI50 in the assay on KM12, in the assay on ACHN, with SR, in the assay on SK-MEL-28, in the assay on NCI-H460 and with TK-10 was > 100 µM (inactive) throughout. Moreover, the GI50 with A549 and with EKVX was > 100 µM (inactive) in each case.

As for `C/C=C1/CN2[C@@H](C3=C[C@@H]4[C@@H]5N(C3=O)c3ccccc3[C@@]53CCN5C/C(=C/C)[C@@H]4C[C@H]53)C[C@@]34c5ccccc5N5C(=O)CC=C([C@H]1C[C@H]23)[C@H]54` [ISOSUNGUCINE], the GI50 with HCC 2998 is 2.43 µM (inactive); in the assay on HOP-92, 5.55 µM (inactive); in the assay on BT-549, 8.34 µM (inactive); in the assay on DU-145, 9.91 µM (inactive); with COLO 205 it was 1.81 µM (inactive); in the assay on UACC-257, 1.24 µM (inactive). In addition, the GI50 in the assay on SNB-19 is 7.52 µM (inactive); in the assay on SF-539, 1.11 µM (active); in the assay with SN12C it was 3.01 µM (inactive); with K562, 2.05 µM (inactive); in the assay with SK-MEL-5, 2.75 µM (inactive); in the assay on UACC-62, 2.86 µM (inactive). Besides, the GI50 in the assay on KM12 was 5.41 µM (inactive); in the assay with ACHN, 5.81 µM (inactive); with SR it was 1.19 µM (inactive); in the assay with SK-MEL-28, 1.42 µM (inactive); in the assay on NCI-H460 it was 6.62 µM (inactive); in the assay on TK-10, 7.85 µM (inactive). For the same molecule, the GI50 with A549 was 7.66 µM (inactive); in the assay with EKVX it was 5.66 µM (inactive).
